Test results as given in ChEMBL document CHEMBL1201862, “PubChem BioAssay data set” (2004).
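Exposure lasted 48 hours, with cells grown in 96-well plates and compounds tested at five concentrations. The concentration for 50% growth inhibition is given as GI50.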 Calls of active or inactive are those of the source. Cut-off read from the data, not from the text of the source: active = GI50 up to about 1.1 µM and inactive = higher.

Key:
Assay in all cases: inhibition of tumour cell growth, NCI panel, 48 h
[1] = tested on: K562
[2] = tested on: SR
[3] = tested on: SW-620
[4] = tested on: DLD-1
[5] = tested on: HCT-15
[6] = tested on: HCC 2998
[7] = tested on: OVCAR-5
[8] = tested on: RXF 631
[9] = tested on: SF-539
[10] = tested on: SK-MEL-5
[11] = tested on: HT-29
[12] = tested on: UACC-62
[13] = tested on: SF-268
[14] = tested on: LXFL 529
[15] = tested on: HCT-116
[16] = tested on: UO-31
[17] = tested on: NCI-H226
[18] = tested on: SK-OV-3
[19] = tested on: RXF 393
[20] = tested on: DMS-273
[21] = tested on: M19-MEL
[22] = tested on: OVCAR-4
[23] = tested on: IGROV-1
[24] = tested on: KM-20L2
[25] = tested on: SNB-19
[26] = tested on: EKVX
[27] = tested on: TK-10
[28] = tested on: SN12C
[29] = tested on: NCI-H460
[30] = tested on: NCI-H23
[31] = tested on: Malme-3M
[32] = tested on: SNB-78
[33] = tested on: KM12
[34] = tested on: SK-MEL-2
[35] = tested on: NCI-H522
[36] = tested on: UACC-257
[37] = tested on: SF-295
[38] = tested on: SNB-75
[39] = tested on: XF498
[40] = tested on: CCRF-CEM
[41] = tested on: A498
[42] = tested on: ACHN
[43] = tested on: M14
[44] = tested on: MOLT-4
[45] = tested on: COLO 205
[46] = tested on: SK-MEL-28
[47] = tested on: A549
[48] = tested on: U-251
[49] = tested on: OVCAR-3
[50] = tested on: CAKI-1
[51] = tested on: OVCAR-8
[52] = tested on: DMS-114
[53] = tested on: 786-0
[54] = tested on: HOP-62
[55] = tested on: RPMI-8226
[56] = tested on: HL-60
[57] = tested on: PC-3
[58] = tested on: MDA-MB-231
[59] = tested on: Hs-578T
[60] = tested on: DU-145
[61] = tested on: MDA-MB-435
[62] = tested on: BT-549
[63] = tested on: NCI/ADR-RES
[64] = tested on: LOX IMVI
[65] = tested on: HOP-18
[66] = tested on: MCF7
[67] = tested on: T47D
[68] = tested on: HOP-92
[69] = tested on: MDA-N

## CN1C(=N\S(=O)(=O)c2ccc(Cl)cc2)/C(=N/N=P(c2ccccc2)(c2ccccc2)c2ccccc2)c2ccccc21
[1]
  GI50: > 100 µM (inactive)
[2]
  GI50: > 100 µM (inactive)
[3]
  GI50: > 100 µM (inactive)
[4]
  GI50: > 100 µM (inactive)
[5]
  GI50: > 100 µM
[6]
  GI50: > 100 µM (inactive)
[7]
  GI50: > 100 µM (inactive)
[8]
  GI50: > 100 µM (inactive)
[9]
  GI50: > 100 µM (inactive)
[10]
  GI50: > 100 µM (inactive)
[11]
  GI50: > 100 µM (inactive)
[12]
  GI50: > 100 µM (inactive)
[13]
  GI50: > 100 µM (inactive)
[14]
  GI50: > 100 µM (inactive)
[15]
  GI50: > 100 µM (inactive)
[16]
  GI50: > 100 µM (inactive)
[17]
  GI50: 73.3 µM (inactive)
[18]
  GI50: > 100 µM (inactive)
[19]
  GI50: > 100 µM (inactive)
[20]
  GI50: > 100 µM (inactive)
[21]
  GI50: > 100 µM (inactive)
[22]
  GI50: > 100 µM (inactive)
[23]
  GI50: > 100 µM (inactive)
[24]
  GI50: > 100 µM (inactive)
[25]
  GI50: > 100 µM (inactive)
[26]
  GI50: > 100 µM (inactive)
[27]
  GI50: > 100 µM (inactive)
[28]
  GI50: > 100 µM (inactive)
[29]
  GI50: > 100 µM (inactive)
[30]
  GI50: > 100 µM (inactive)
[31]
  GI50: > 100 µM (inactive)
[32]
  GI50: > 100 µM (inactive)
[33]
  GI50: > 100 µM (inactive)
[34]
  GI50: > 100 µM (inactive)
[35]
  GI50: > 100 µM (inactive)
[36]
  GI50: > 100 µM (inactive)
[37]
  GI50: > 100 µM (inactive)
[38]
  GI50: > 100 µM (inactive)
[39]
  GI50: > 100 µM (inactive)
[40]
  GI50: > 100 µM (inactive)
[41]
  GI50: > 100 µM (inactive)
[42]
  GI50: > 100 µM (inactive)
[43]
  GI50: > 100 µM (inactive)
[44]
  GI50: > 100 µM (inactive)
[45]
  GI50: > 100 µM (inactive)
[46]
  GI50: > 100 µM (inactive)
[47]
  GI50: 95.7 µM (inactive)
[48]
  GI50: > 100 µM (inactive)
[49]
  GI50: > 100 µM (inactive)
[50]
  GI50: > 100 µM (inactive)
[51]
  GI50: > 100 µM (inactive)

## CN1C(=O)CCC2[C@@H]3CC=C4C[C@@H](O)CC[C@]4(C)C3CC[C@@]21C (some centres undefined)
[1]
  GI50: 21.3 µM (inactive)
[3]
  GI50: > 100 µM (inactive)
[4]
  GI50: > 100 µM (inactive)
[5]
  GI50: 71.6 µM
[6]
  GI50: > 100 µM (inactive)
[7]
  GI50: 97.7 µM (inactive)
[8]
  GI50: 28 µM (inactive)
[9]
  GI50: 45.9 µM (inactive)
[10]
  GI50: 13.5 µM (inactive)
[11]
  GI50: 36.6 µM (inactive)
[12]
  GI50: 62.4 µM (inactive)
[14]
  GI50: 29.1 µM (inactive)
[15]
  GI50: 33.5 µM (inactive)
[16]
  GI50: 33.8 µM (inactive)
[17]
  GI50: > 100 µM (inactive)
[18]
  GI50: > 100 µM (inactive)
[19]
  GI50: 18.3 µM (inactive)
[52]
  GI50: 16.4 µM (inactive)
[53]
  GI50: 94.4 µM (inactive)
[20]
  GI50: 64.1 µM (inactive)
[54]
  GI50: 45.9 µM (inactive)
[21]
  GI50: 50.6 µM (inactive)
[22]
  GI50: 33.4 µM (inactive)
[23]
  GI50: 96.2 µM (inactive)
[24]
  GI50: 53.5 µM (inactive)
[26]
  GI50: 67.5 µM (inactive)
[27]
  GI50: > 100 µM (inactive)
[29]
  GI50: 45 µM (inactive)
[30]
  GI50: 25.4 µM (inactive)
[31]
  GI50: 82.4 µM (inactive)
[32]
  GI50: > 100 µM (inactive)
[33]
  GI50: 59.8 µM (inactive)
[34]
  GI50: > 100 µM (inactive)
[36]
  GI50: 20.3 µM (inactive)
[37]
  GI50: 27.2 µM (inactive)
[38]
  GI50: > 100 µM (inactive)
[39]
  GI50: 45.7 µM (inactive)
[40]
  GI50: 36.1 µM (inactive)
[41]
  GI50: > 100 µM (inactive)
[42]
  GI50: 42.4 µM (inactive)
[43]
  GI50: 83.6 µM (inactive)
[44]
  GI50: 18.5 µM (inactive)
[55]
  GI50: 20.8 µM (inactive)
[46]
  GI50: > 100 µM (inactive)
[47]
  GI50: 46.1 µM (inactive)
[48]
  GI50: > 100 µM (inactive)
[49]
  GI50: 49.5 µM (inactive)
[50]
  GI50: 50.2 µM (inactive)
[56]
  GI50: 11.5 µM (inactive)
[51]
  GI50: 64.9 µM (inactive)

## CCOc1ccc(NC2=CC(=O)C(=O)c3ccccc32)cc1
[57]
  GI50: 3.12 µM (inactive)
[58]
  GI50: 12.1 µM (inactive)
[1]
  GI50: 5.07 µM (inactive)
[59]
  GI50: 2.37 µM (inactive)
[2]
  GI50: 3.4 µM (inactive)
[3]
  GI50: 1.82 µM (inactive)
[4]
  GI50: 4.43 µM (inactive)
[5]
  GI50: 2.34 µM
[6]
  GI50: 13.1 µM (inactive)
[7]
  GI50: 3.77 µM (inactive)
[9]
  GI50: 1.97 µM (inactive)
[10]
  GI50: 1.59 µM (inactive)
[11]
  GI50: 5.35 µM (inactive)
[12]
  GI50: 1.72 µM (inactive)
[13]
  GI50: 6.25 µM (inactive)
[14]
  GI50: 3.47 µM (inactive)
[15]
  GI50: 3.35 µM (inactive)
[60]
  GI50: 2.38 µM (inactive)
[16]
  GI50: 4.45 µM (inactive)
[17]
  GI50: 4.86 µM (inactive)
[18]
  GI50: 11.3 µM (inactive)
[19]
  GI50: 5.87 µM (inactive)
[61]
  GI50: 1.8 µM (inactive)
[52]
  GI50: 1.88 µM (inactive)
[53]
  GI50: 3.78 µM (inactive)
[20]
  GI50: 2.88 µM (inactive)
[54]
  GI50: 3.88 µM (inactive)
[21]
  GI50: 0.647 µM (active)
[22]
  GI50: 3.48 µM (inactive)
[23]
  GI50: 4.29 µM (inactive)
[24]
  GI50: 18.7 µM (inactive)
[25]
  GI50: 2.94 µM (inactive)
[26]
  GI50: 16.4 µM (inactive)
[62]
  GI50: 1.66 µM (inactive)
[27]
  GI50: 8.32 µM (inactive)
[28]
  GI50: 1.82 µM (inactive)
[29]
  GI50: 2.47 µM (inactive)
[30]
  GI50: 1.91 µM (inactive)
[31]
  GI50: 2.08 µM (inactive)
[63]
  GI50: 2.83 µM (inactive)
[32]
  GI50: 15.5 µM (inactive)
[64]
  GI50: 1.3 µM (inactive)
[33]
  GI50: 3.77 µM (inactive)
[34]
  GI50: 4.31 µM (inactive)
[35]
  GI50: 1.81 µM (inactive)
[36]
  GI50: 1.63 µM (inactive)
[65]
  GI50: 2.6 µM (inactive)
[37]
  GI50: 2.61 µM (inactive)
[38]
  GI50: 2.35 µM (inactive)
[39]
  GI50: 2.25 µM (inactive)
[40]
  GI50: 9.48 µM (inactive)
[41]
  GI50: 3.61 µM (inactive)
[42]
  GI50: 2.28 µM (inactive)
[43]
  GI50: 1.75 µM (inactive)
[44]
  GI50: 8.83 µM (inactive)
[66]
  GI50: 2.15 µM (inactive)
[45]
  GI50: 3.64 µM (inactive)
[55]
  GI50: 4.47 µM (inactive)
[67]
  GI50: 8.79 µM (inactive)
[46]
  GI50: 3.27 µM (inactive)
[47]
  GI50: 2.74 µM (inactive)
[48]
  GI50: 3.85 µM (inactive)
[49]
  GI50: 2.86 µM (inactive)
[50]
  GI50: 8.05 µM (inactive)
[68]
  GI50: 9.48 µM (inactive)
[56]
  GI50: 0.459 µM (active)
[51]
  GI50: 4.33 µM (inactive)
[69]
  GI50: 2.05 µM (inactive)
